The text below walks through data of patent US10030027B2, “Soluble guanylate cyclase stimulators” (MERCK SHARP & DOHME CORP., priority 2015, dated 2018).

The target in one assay is sGC α1/β1 heterodimer (Homo sapiens (Human), UniProt Q02108+Q02153). The experiment in a line: Cell-based sGC functional assay (cyclic GMP assay for sGC activator: CASA assay). More on the design: % Activation: concentration or dose not given beside the values. The following applies: CHO-K1/sGC cells; for Emax: CHO-K1, activity expressed as percentage of compound A (standard), read-out: % Activation; for EC50: inflection point, 4P fit, read-out: IP; for % Activation: activity expressed as percentage of compound A (standard). An outline of the steps:
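CHO-K1 cells stably expressing human sGC α1/β1 were pre-incubated 30 min at 25° C with or without 1 μM DETA-NO, then exposed to compound for 1 hr at 37° C with 0.5 mM IBMX and 2.5% DMSO final. Intracellular cGMP was measured by HTRF, expressed as % of reference sGC-HDA maximum; inflection point and maximum fold induction came from 4-parameter fits.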

The target in assay [1] is human recombinant sGC enzyme (Homo sapiens (Human), UniProt Q02108+Q02153). The experiment in a line: Size Exclusion Chromatography (SEC) competition binding assay using [3H] Ex-77B as the radioligand. The following applies: [3H] Ex-77B radioligand, 24 hours at 37° C. An outline of the steps: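 Recombinant human sGC binding measured by competition against tritiated Ex-77B radioligand, with non-specific binding defined by 1 μM unlabeled Ex-77B.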
A general note: Size exclusion chromatography separates by hydrodynamic size, large species first.

Broadly, the Ki is a dissociation constant, usually derived from enzyme kinetics or from competition with a known ligand. `CC1(c2cccc(C(=O)O)c2)C(=O)Nc2nc(-c3nn(CCC(F)(F)C(F)(F)F)c4cc(Cl)ccc34)nc(N)c21` (stereo not drawn) [Example 26B, 3-{4-amino-2-[6-chloro-1-(3,3,4,4,4-pentafluorobutyl)-1H-indazol-3-yl]-5-methyl-6-oxo-6,7-dihydro-5H-pyrrolo[2,3-d]pyrimidin-5-yl}benzoic acid]: on sGC α1/β1 heterodimer, the Emax came to 102% and the EC50 stood at 1920 nM. In assay [1], the Ki worked out at 0.266 nM.

As to `CC(C)(Cc1coc(C2(C)C(=O)Nc3nc(-c4nn(Cc5ncccc5F)c5cc(Cl)ccc45)nc(N)c32)n1)C(=O)O` (stereo not drawn) [Example 184A, 3-{2-[4-amino-2-{6-chloro-1-[(3-fluoropyridin-2-yl)methyl]-1H-indazol-3-yl}-5-methyl-6-oxo-6,7-dihydro-5H-pyrrolo[2,3-d]pyrimidin-5-yl]-1,3-oxazol-4-yl}-2,2-dimethyl-propanoic acid], at sGC α1/β1 heterodimer, the Emax turned out to be 97.7% and the EC50 is 230 nM. For the same molecule, in assay [1], the Ki was 0.092 nM.

For the molecule `CC(C)(Cc1csc([C@]2(C)C(=O)Nc3nc(-c4nn(Cc5ccc(F)cc5)c5cc(Cl)ccc45)nc(N)c32)n1)C(=O)O` [Example 174A, (S)-3-(2-{4-amino-2-[6-chloro-1-(4-fluorobenzyl)-1H-indazol-3-yl]-5-methyl-6-oxo-6,7-dihydro-5H-pyrrolo[2,3-d]pyrimidin-5-yl}-1,3-thiazol-4-yl)-2,2-dimethyl-propanoic acid], on sGC α1/β1 heterodimer, the Emax is 121% and the EC50 was determined as 682 nM. In addition, the Ki in assay [1] worked out at 0.173 nM.

In the case of `CC(C)(Cc1csc([C@]2(C)C(=O)Nc3nc(-c4nn(Cc5ccccc5F)c5ccccc45)nc(N)c32)n1)c1nn[nH]n1` (single isomer, unassigned) [Example 236A], on sGC α1/β1 heterodimer, the Emax amounted to 110% and the EC50 was 478 nM. In assay [1], the Ki stood at 0.158 nM.

With `C[C@@]1(c2ccc(CCc3nn[nH]n3)cc2)C(=O)Nc2nc(-c3nn(Cc4ccccc4F)c4ncccc34)nc(N)c21` [Example 240B, (S)-4-amino-2-[1-(2-fluoro-benzyl)-1H-pyrazolo[3,4-b]pyridin-3-yl]-5-methyl-5-{4-[2-(2H-tetrazol-5-yl)ethyl]phenyl}-5,7-dihydro-6H-pyrrolo[2,3-d] pyrimidin-6-one], at sGC α1/β1 heterodimer, the Emax was 104% and the EC50 came out at 749 nM. Moreover, the Ki in assay [1] is 0.075 nM.

Take `CC1(c2ccc(/C=C/C(=O)O)cc2)C(=O)Nc2nc(-c3nn(Cc4ccccc4F)c4ncccc34)nc(N)c21` (stereo not drawn) [Example 217A, (2E)-3-(4-{4-amino-2-[1-(2-fluorobenzyl)-1H-pyrazolo[3,4-b]pyridin-3-yl]-5-methyl-6-oxo-6,7-dihydro-5H-pyrrolo[2,3-d]pyrimidin-5-yl}phenyl)prop-2-enoic acid]: on sGC α1/β1 heterodimer, the Emax was found to be 124% and the EC50 was 1420 nM. The Ki in assay [1] was 0.067 nM.

As to `CC(C)(Cc1csc([C@]2(C)C(=O)Nc3nc(-c4nn(CC5CCCCO5)c5ccccc45)nc(N)c32)n1)C(=O)O` (single isomer, unassigned) [Example 229AA], at sGC α1/β1 heterodimer, the “% Activation” value stood at 114.6% and the EC50 worked out at 770 nM. For the same molecule, the Ki in assay [1] is 0.496 nM.

As for `C[C@@]1(c2ccc(CCC(=O)NCC(=O)O)cc2)C(=O)Nc2nc(-c3nn(Cc4ccccc4F)c4ncccc34)nc(N)c21` [Example 100B, (S)-(3-(4-{4-Amino-2-[1-(2-fluorobenzyl)-1H-pyrazolo[3,4-b]pyridin-3-yl]-5-methyl-6-oxo-6,7-dihydro-5H-pyrrolo[2,3-d]pyrimidin-5-yl}phenyl)propanoyl)glycine], at sGC α1/β1 heterodimer, the Emax was found to be 109% and the EC50 worked out at 1800 nM. In addition, in assay [1], the inhibition constant (Ki) was found to be 0.039 nM.

For the molecule `C[C@@]1(c2ccc(CCC(=O)O)cc2)C(=O)Nc2nc(-c3nn(CC4CCCCO4)c4cc(Cl)ccc34)nc(N)c21` (single isomer, unassigned) [Example 6A], on sGC α1/β1 heterodimer, the Emax was determined as 85% and the EC50 was determined as 1260 nM. Also, in assay [1], the Ki stood at 0.13 nM.

Consider `CC1(c2nn(CC(=O)O)c(=O)o2)C(=O)Nc2nc(-c3nn(CCC(F)(F)C(F)(F)F)c4cc(Cl)ccc34)nc(N)c21` (stereo not drawn) [Example 98A, [5-{4-Amino-2-[6-chloro-1-(3,3,4,4,4-pentafluorobutyl)-1H-indazol-3-yl]-5-methyl-6-oxo-6,7-dihydro-5H-pyrrolo[2,3-d]pyrimidin-5-yl}-2-oxo-1,3,4-oxadiazol-3(2H)-yl]acetic acid], for which, on sGC α1/β1 heterodimer, the Emax was 83% and the EC50 came out at 254 nM. Besides, the inhibition constant (Ki) in assay [1] was determined as 0.395 nM.

For the molecule `C[C@@]1(c2ccc(CCC(=O)O)cc2)C(=O)Nc2nc(-c3nn(Cc4ccccc4F)c4cc(F)ccc34)nc(N)c21` [Example 60B, (S)-3-(4-{4-amino-2-[6-fluoro-1-(2-fluorobenzyl)-1H-indazol-3-yl]-5-methyl-6-oxo-6,7-dihydro-5H-pyrrolo[2,3-d]pyrimidin-5-yl}phenyl)propanoic acid], at sGC α1/β1 heterodimer, the Emax was 128% and the EC50 was 167 nM. Besides, in assay [1], the Ki came out at 0.102 nM.

In the case of `CC(C)(Cc1csc([C@]2(C)C(=O)Nc3nc(-c4nn(CC5CCCC5)c5ncccc45)nc(N)c32)n1)C(=O)O` (single isomer, unassigned) [Example 153A], at sGC α1/β1 heterodimer, the Emax was 119% and the EC50 amounted to 145 nM. Moreover, the Ki in assay [1] was 0.118 nM.

For `CC1(c2cnn(CCC(=O)O)n2)C(=O)Nc2nc(-c3nn(CCC(F)(F)C(F)(F)F)c4ncccc34)nc(N)c21` (stereo not drawn) [Example 109B, 3-(4-{4-Amino-5-methyl-6-oxo-2-[1-(3,3,4,4,4-pentafluorobutyl)-1H-pyrazolo[3,4-b]pyridin-3-yl]-6,7-dihydro-5H-pyrrolo[2,3-d]pyrimidin-5-yl}-2H-1,2,3-triazol-2-yl)propanoic acid], at sGC α1/β1 heterodimer, the Emax worked out at 78% and the EC50 was determined as 1660 nM. Moreover, the Ki in assay [1] worked out at 2 nM.

In the case of `CC1CCC(Cn2nc(-c3nc(N)c4c(n3)NC(=O)C4(C)c3nc(CC(C)(C)C(=O)O)co3)c3cccnc32)CC1` (single isomer, unassigned) [Example 126AB, 3-{2-[4-amino-5-methyl-2-{1-[4-methylcyclohexylmethyl]-1H-pyrazolo[3,4-b]pyridin-3-yl}-6-oxo-6,7-dihydro-5H-pyrrolo[2,3-d]pyrimidin-5-yl]-1,3-oxazol-4-yl}-2,2-dimethylpropanoic acid], at sGC α1/β1 heterodimer, the “% Activation” value was found to be 109.2% and the EC50 was 199 nM. Also, in assay [1], the Ki stood at 0.077 nM.

Turning to `COCCn1nc(-c2nc(N)c3c(n2)NC(=O)C3(C)c2cccc(CC(C)(C)C(=O)O)c2)c2ccc(Cl)cc21` (stereo not drawn) [Example 39B, 3-(3-{4-amino-2-[6-chloro-1-(2-methoxyethyl)-1H-indazol-3-yl]-5-methyl-6-oxo-6,7-dihydro-5H-pyrrolo[2,3-d]pyrimidin-5-yl}phenyl)-2,2-dimethylpropanoic acid], on sGC α1/β1 heterodimer, the Emax was determined as 82% and the EC50 came to 1090 nM. Moreover, the inhibition constant (Ki) in assay [1] amounted to 3.65 nM.

For `CC(C)(Cc1coc(C2(C)C(=O)Nc3nc(-c4nn(Cc5cccc(F)c5)c5ccccc45)nc(N)c32)n1)C(=O)O` (stereo not drawn) [Example 223A, 3-(2-{4-amino-2-[1-(3-fluoro-benzyl)-1H-indazol-3-yl]-5-methyl-6-oxo-6,7-dihydro-5H-pyrrolo[2,3-d]pyrimidin-5-yl}-1,3-oxazol-4-yl)-2,2-dimethyl-propanoic acid], at sGC α1/β1 heterodimer, the Emax is 119% and the EC50 was 210 nM. Moreover, the Ki in assay [1] was determined as 0.05 nM.
